Data set [1] concerns virus Herpès simplex type I. As to the kind of experiment: In vivo cutaneous HSV I infection in guinea pigs, local application. Also on record: species or system cobayes albinos (Dunkin-Hartley, IFFA-CREDO). The settings on record: for infection herpétique cutanée / lésions cutanées: cobayes, application locale deux fois par jour pendant 3 jours, observations jours 5 à 8; for % moyen d'activité: moyenne entre le jour 5 et le jour 8. Here is the method: L'expérimentation a été réalisée en application locale sur des cobayes albinos (Dunkin-Hartley, IFFA-CREDO) auxquels on a préalablement inoculé par scarification le virus Herpès simplex type I. Sur ces scarifications, on a appliqué 0,1 ml d'une solution de virus HSV I titrant 10 000 DI50 pour 100 µl. Un flanc des animaux a servi de témoin. Le traitement a été effectué deux fois par jour pendant 3 jours, la première application ayant lieu 18 h après l'inoculation.
Les paramètres retenus pour déterminer la gravité des lésions cutanées sont : érythèmes, indurations, nombre et taille des vésicules, aires d'infection et présence ou absence de virus. Les observations sont réalisées 5, 6, 7 et 8 jours après l'inoculation.

The conditions of data set [2]: cited from earlier work.
The subject of data set [3] is virus HSV I. Kind of data set: Virucidal activity by contact of the virus with the compounds, infra-cytotoxic doses. The settings on record: doses infra-cytotoxiques, "-" = absence d'activité. The data set is classed as cell-based. Here is the method: (§1) Dans un premier temps, on a donc déterminé l'activité virucide des différents composés testés par mise en contact du virus avec ces composés. Puis on a déterminé l'activité anti-virale des composés testés en inoculant le virus (sous la forme d'une suspension préalablement diluée dans du milieu de Hanks de manière à avoir une concentration en virus de 100 DE50 pour 10 µl de suspension) à une culture de fibroblastes de poumon embryonnaire (cellules commercialisées par la société Bio-Mérieux sous la référence MCR5), puis en traitant la culture cellulaire, inoculée par le virus, par les composés à tester, dilués également dans du milieu de Hanks. Les plaques de cultures cellulaires ont ensuite été observées au microscope inversé après 24h et 48h d'inoculation, ainsi que des cultures témoins non-inoculées et des virus témoins incubés sans composés. Les résultats sont rassemblés dans le tableau suivant: […]

The test system of data set [4] is virus HSV I. Kind of data set: Anti-viral activity in HSV I-inoculated embryonic lung fibroblast culture. The settings on record: HSV I 100 DE50 pour 10 µl, fibroblastes de poumon embryonnaire MCR5, observation 24h et 48h; "-" = absence d'activité. The data set is classed as cell-based. The protocol: as §1
The subject of data set [5] is infections herpétiques buccales et vulvaires. Kind of data set: Human clinical use in buccal and vulvar herpetic infections. The data set is classed as in vivo, humaine.
The next data set deals with zonas. As to the kind of experiment: Human clinical use in zona. The data set is classed as in vivo. The settings on record: clinique humaine.

Structures can show the parent of a compound that is named as a salt.

Turning to `Oc1cccc2cccnc12` [8-HQS, sulfate d'hydroxy-8 quinoléine], the “infection herpétique cutanée / lésions cutanées” value in data set [1] is “aucun effet”. For the same compound, in data set [1] (concentration 0,2 %), the “% moyen d'activité” value was 0,0%. In data set [2], the “solubilité dans l'alcool” value is on record as “faiblement soluble”, the “solubilité dans l'eau” value is “soluble” and the “solubilité dans l'éther” value was “insoluble”.

Regarding `Nc1nc2c(ncn2COCCO)c(=O)[nH]1` [Acyclovir, 2-amino-1,9-dihydro-9-[(2-hydroxyethoxy)methyl]-6H-purin-6-one], the “% moyen d'activité” value in data set [1] (concentration 1,0 %) was 55,2%.

Take acriflavine [ACF]: in the data set with virus HSV I [3], the “Concentrations minimales activité virucide” value amounted to 1 µg/mL. Moreover, the “Concentrations minimales activité anti-virale” value in the data set with virus HSV I [4] amounted to 2 µg/mL. In data set [1], the “infection herpétique cutanée / lésions cutanées” value was “réduisent significativement”. Moreover, the “% moyen d'activité” value in data set [1] (concentration 0,2 %) is 0,0%; in data set [1] (concentration 1,0 %) it was 44,5%; in data set [1] (concentration 2,0 %), 81,5%; in data set [1] (concentration 4,0 %) it was 95,2%. The “résultats en clinique humaine” value in data set [5] was “résultats favorables”. In addition, the “éruptions vésiculeuses et névralgies des territoires cutanés infectés” value in the data set with zonas is recorded as “réduit significativement”. Also, in data set [2], the “solubilité dans l'alcool” value is on record as “partiellement soluble”. Also, the “solubilité dans l'eau” value in data set [2] is recorded as “soluble”. The “solubilité dans l'éther” value in data set [2] is on record as “pratiquement insoluble”.
